This test has as its target T1, human full-length recombinant PKC βII (Homo sapiens, UniProt P05771).
T1 construct: Active human full-length recombinant PKC βII; purchased Invitrogen GmbH, Darmstadt, Germany
The experiment in a line: Determination of PKC βII inhibition (Caliper mobility-shift kinase assay). The format is biochemical. Conditions: example compounds at a final concentration of 1.14 μM (±0.15 μM); 60 min incubation at 32° C. On the procedure:
Determination of PKC 3H Inhibition
PKC βII inhibition was determined according to the following protocol:
Active human full-length recombinant PKC βII and the peptide substrate, Fluorescein-RFARKGSLRQKNV, were purchased from Invitrogen GmbH, Darmstadt, Germany. Adenosine-5′-triphosphate (ATP), bovine serum albumine (BSA), dimethylsulphoxide (DMSO), 4-(2-hydroxyethyl)piperazine-1-ethanesulfonic acid (Hepes), Triton X-100, 1,2-Dioleoyl-sn-glycerol (DAG), L-α-Phosphatidyl-L-serine (PS), calcium chloride (CaCl2), and Pluronic F-68 were purchased from Sigma-Aldrich, Munich, Germany. Magnesium chloride, 1 M sodium hydroxide solution, 1M hydrochloric acid solution and EDTA were obtained from Merck Biosciences, Darmstadt, Germany.
Test compounds were diluted to three times the test concentration in buffer 1 (30 mM Hepes-NaOH, pH 7.4, 0.01% Pluronic F-68 and 3% (v/v) DMSO). The PKC βII enzyme was diluted to a concentration of 30 ng/ml in buffer 2 (30 mM Hepes-NaOH, pH 7.4, 15 mM MgCl2, 150 μM CaCl2, 150 μg/ml PS, 60 μg/ml DAG, and 0.045% (w/v) Triton X-100). The peptide substrate and ATP were diluted to concentrations of 3 μM and 120 μM, respectively, in buffer 2. Two μl of the compound solution were mixed with 2 μl of the diluted enzyme in a 384-well small volume microtiter plate (Greiner, Bio-One, Frickenhausen, Germany), and the kinase reaction was initiated by addition of 2 μl of the solution containing peptide substrate and ATP. After 60 min incubation at 32° C., the reaction was stopped by addition of 20 μl of a solution containing 130 mM Hepes-NaOH, pH 7.4, 0.0195% (v/v) Brij-35, 6.5 mM EDTA, 0.13% chip coating reagent 3 (Caliper Lifescience Inc, Hopkinton, Mass.) and 6.5% (v/v) DMSO. Phosphorylation of the substrate peptide was then detected on a Caliper 3000 instrument essentially as described by Pommereau et al (J. Biomol. Screening 2004, 9(5), […]), Separation conditions were as follows: Pressure −0.8 psi, upstream voltage −3000 V, downstream voltage −800 V. Positive controls (buffer 1 instead of compound) and negative controls (buffer 1 instead of compound and buffer 2 instead of kinase solution) were run in parallel on each plate. Fractional turnover (R) was determined as the height of the peak of the phosphorylated peptide product divided by the sum of the unphosphorylated substrate and phosphorylated product peak heights. Percent-inhibition values for the test compounds were determined using the formula
% Inhibition=100*(1−(Rcompound−Rnegative control)/(Rpositive control−Rnegative control).

This is an account of results in US20130150340A1, “6-(4-Hydroxy-phenyl)-1H-pyrazolo[3,4-b]pyridine-4-carboxylic acid amide derivatives as kinase inhibitors” (SANOFI, priority 2011, published 2013).

SMILES strings stand for the structures.

T1 sequence (P05771 1-673 isoform P05771-2): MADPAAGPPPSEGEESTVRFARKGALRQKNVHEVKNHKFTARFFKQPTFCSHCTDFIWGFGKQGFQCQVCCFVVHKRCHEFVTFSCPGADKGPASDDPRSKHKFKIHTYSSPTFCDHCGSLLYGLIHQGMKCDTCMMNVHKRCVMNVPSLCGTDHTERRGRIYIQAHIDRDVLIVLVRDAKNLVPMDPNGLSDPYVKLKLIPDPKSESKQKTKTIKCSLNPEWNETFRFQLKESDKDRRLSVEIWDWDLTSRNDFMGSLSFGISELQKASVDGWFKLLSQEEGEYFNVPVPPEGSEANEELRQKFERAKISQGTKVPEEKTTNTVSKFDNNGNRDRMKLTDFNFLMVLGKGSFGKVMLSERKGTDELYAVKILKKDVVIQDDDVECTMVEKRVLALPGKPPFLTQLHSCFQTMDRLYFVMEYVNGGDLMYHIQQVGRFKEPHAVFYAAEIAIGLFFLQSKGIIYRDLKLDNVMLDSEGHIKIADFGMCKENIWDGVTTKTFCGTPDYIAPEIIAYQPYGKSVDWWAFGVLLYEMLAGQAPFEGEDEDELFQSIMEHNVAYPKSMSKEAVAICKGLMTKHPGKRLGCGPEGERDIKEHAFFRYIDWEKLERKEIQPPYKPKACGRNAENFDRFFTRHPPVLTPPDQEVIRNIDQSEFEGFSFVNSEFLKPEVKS

As to `NC1CN(C(=O)c2cc(-c3ccc(O)cc3)nc3[nH]ncc23)C1` [Example 36, (3-Amino-azetidin-1-yl)-[6-(4-hydroxy-phenyl)-1H-pyrazolo[3,4-b]pyridin-4-yl]-methanone], the inhibition at 1.14 µM came to 54%.

For the compound `O=C(c1cc(-c2ccc(O)cc2)nc2[nH]ncc12)N1CCC2(CCNC2)CC1` [Example 43, (2,8-Diaza-spiro[4.5]dec-8-yl)-[6-(4-hydroxy-phenyl)-1H-pyrazolo[3,4-b]pyridin-4-yl]-methanone], the inhibition at 1.14 µM came out at 52%.

Take `O=C(c1cc(-c2ccc(O)cc2)nc2[nH]ncc12)N1CCN(C2CCCCCC2)CC1` [Example 58, (4-Cycloheptyl-piperazin-1-yl)-[6-(4-hydroxy-phenyl)-1H-pyrazolo[3,4-b]pyridin-4-yl]-methanone]: the inhibition at 1.14 µM was determined as 40%.

Consider `O=C(N[C@H]1CN2CCC1CC2)c1cc(-c2ccc(O)cc2)nc2[nH]ncc12` [Example 18, 6-(4-Hydroxy-phenyl)-1H-pyrazolo[3,4-b]pyridine-4-carboxylic acid-(R)-(1-Aza-bicyclo[2.2.2]oct-3-yl)amide], for which the inhibition at 1.14 µM was 72%.

With `N[C@H]1CC[C@@H](NC(=O)c2cc(-c3ccc(O)cc3)nc3[nH]ncc23)CC1` [Example 8, 6-(4-Hydroxy-phenyl)-1H-pyrazolo[3,4-b]pyridine-4-carboxylic acid (cis-4-amino-cyclohexyl)-amide], the inhibition at 1.14 µM was determined as 46%.

With `CN1CCN(C(=O)c2cc(-c3ccc(O)cc3)nc3[nH]ncc23)CC1=O` [Example 76, 4-[6-(4-Hydroxy-phenyl)-1H-pyrazolo[3,4-b]pyridine-4-carbonyl]-1-methyl-piperazin-2-one], the inhibition at 1.14 µM amounted to 30%.

On to `CC1CN(C(=O)c2cc(-c3ccc(O)cc3)nc3[nH]ncc23)CCN1` (centres unmarked) [Example 37, [6-(4-Hydroxy-phenyl)-1H-pyrazolo[3,4-b]pyridin-4-yl]-(3-methyl-piperazin-1-yl)-methanone], for which the inhibition at 1.14 µM stood at 91%.

As to `CCN1CC2CC1CN2C(=O)c1cc(-c2ccc(O)cc2)nc2[nH]ncc12` (centres unmarked) [Example 70, (5-Ethyl-2,5-diaza-bicyclo[2.2.1]hept-2-yl)-[6-(4-hydroxy-phenyl)-1H-pyrazolo[3,4-b]pyridin-4-yl]-methanone], the inhibition at 1.14 µM is 46%.

On to `CN1CCCC(NC(=O)c2cc(-c3ccc(O)cc3)nc3[nH]ncc23)C1` (centres unmarked) [Example 41, 6-(4-Hydroxy-phenyl)-1H-pyrazolo[3,4-b]pyridine-4-carboxylic acid (1-methyl-piperidin-3-yl)-amide], for which the inhibition at 1.14 µM was 73%.

For `O=C(c1cc(-c2ccc(O)cc2)nc2[nH]ncc12)N1CC2CNCC2C1` (centres unmarked) [Example 46, (Hexahydro-pyrrolo[3,4-c]pyrrol-2-yl)-[6-(4-hydroxy-phenyl)-1H-pyrazolo[3,4-b]pyridin-4-yl]-methanone], the inhibition at 1.14 µM came out at 39%.

Take `O=C(c1cc(-c2ccc(O)cc2)nc2[nH]ncc12)N1CCC2(CCNCC2)CC1` [Example 44, (3,9-Diaza-spiro[5.5]undec-3-yl)-[6-(4-hydroxy-phenyl)-1H-pyrazolo[3,4-b]pyridin-4-yl]-methanone]: the inhibition at 1.14 µM came out at 44%.

In the case of `CNC1CCN(C(=O)c2cc(-c3ccc(O)cc3)nc3[nH]ncc23)C1` (centres unmarked) [Example 39, [6-(4-Hydroxy-phenyl)-1H-pyrazolo[3,4-b]pyridin-4-yl]-(3-methylamino-pyrrolidin-1-yl)-methanone], the inhibition at 1.14 µM is 62%.

Consider `O=C1CCC(CNC(=O)c2cc(-c3ccc(O)cc3)nc3[nH]ncc23)N1` (centres unmarked) [Example 63, 6-(4-Hydroxy-phenyl)-1H-pyrazolo[3,4-b]pyridine-4-carboxylic acid (5-oxo-pyrrolidin-2-ylmethyl)-amide], for which the inhibition at 1.14 µM is 48%.

On to `O=C(c1cc(-c2ccc(O)cc2)nc2[nH]ncc12)N1CCC2(CCCNC2)C1` (centres unmarked) [Example 23, (2,7-Diaza-spiro[4.5]dec-2-yl)-[6-(4-hydroxy-phenyl)-1H-pyrazolo[3,4-b]pyridin-4-yl]-methanone], for which the inhibition at 1.14 µM came out at 52%.

Turning to `O=C(NC1CCNCC1)c1cc(-c2ccc(O)cc2)nc2[nH]ncc12` [Example 2, 6-(4-Hydroxy-phenyl)-1H-pyrazolo[3,4-b]pyridine-4-carboxylic acid piperidin-4-ylamide], the inhibition at 1.14 µM is 27%.

Regarding `O=C(NC1CCN(C2CCCCC2)CC1)c1cc(-c2ccc(O)cc2)nc2[nH]ncc12` [Example 67, 6-(4-Hydroxy-phenyl)-1H-pyrazolo[3,4-b]pyridine-4-carboxylic acid (1-cyclohexyl-piperidin-4-yl)-amide], the inhibition at 1.14 µM was 64%.

Take `CC(=O)N1CCC(NC(=O)c2cc(-c3ccc(O)cc3)nc3[nH]ncc23)CC1` [Example 68, 6-(4-Hydroxy-phenyl)-1H-pyrazolo[3,4-b]pyridine-4-carboxylic acid (1-acetyl-piperidin-4-yl)-amide]: the inhibition at 1.14 µM was found to be 40%.

On to `NC1CCCN(C(=O)c2cc(-c3ccc(O)cc3)nc3[nH]ncc23)C1` (centres unmarked) [Example 3, (3-Amino-piperidin-1-yl)-[6-(4-hydroxy-phenyl)-1H-pyrazolo[3,4-b]pyridin-4-yl]-methanone], for which the inhibition at 1.14 µM came out at 95%.

As to `CC(=O)N1CCN(C(=O)c2cc(-c3ccc(O)cc3)nc3[nH]ncc23)CC1` [Example 53, 1-{4-[6-(4-Hydroxy-phenyl)-1H-pyrazolo[3,4-b]pyridine-4-carbonyl]-piperazin-1-yl}-ethanone], the inhibition at 1.14 µM is 46%.

For `N[C@H]1CCN(C(=O)c2cc(-c3ccc(O)cc3)nc3[nH]ncc23)C1` [Example 17, ((S)-3-Amino-pyrrolidin-1-yl)-[6-(4-hydroxy-phenyl)-1H-pyrazolo[3,4-b]pyridin-4-yl]-methanone], the inhibition at 1.14 µM was determined as 64%.

Regarding `O=C(c1cc(-c2ccc(O)cc2)nc2[nH]ncc12)N1CCCC2(CNCCO2)C1` (centres unmarked) [Example 28, [6-(4-Hydroxy-phenyl)-1H-pyrazolo[3,4-b]pyridin-4-yl]-(1-oxa-4,8-diaza-spiro[5.5]undec-8-yl)-methanone], the inhibition at 1.14 µM was determined as 15%.

Regarding `O=C(c1cc(-c2ccc(O)cc2)nc2[nH]ncc12)N1CCC2CNCC21` (centres unmarked) [Example 34, (Hexahydro-pyrrolo[3,4-b]pyrrol-1-yl)-[6-(4-hydroxy-phenyl)-1H-pyrazolo[3,4-b]pyridin-4-yl]-methanone], the inhibition at 1.14 µM is 45%.

Take `O=C(c1cc(-c2ccc(O)cc2)nc2[nH]ncc12)N1CCNCC1` [Example 4, [6-(4-Hydroxy-phenyl)-1H-pyrazolo[3,4-b]pyridin-4-yl]-piperazin-1-yl-methanone]: the inhibition at 1.14 µM was 88%.

For `O=C(c1cc(-c2ccc(O)cc2)nc2[nH]ncc12)N1CCCNCC1` [Example 7, [1,4]Diazepan-1-yl-[6-(4-hydroxy-phenyl)-1H-pyrazolo[3,4-b]pyridin-4-yl]-methanone], the inhibition at 1.14 µM worked out at 84%.

For the compound `O=C(c1cc(-c2ccc(O)cc2)nc2[nH]ncc12)N1CCN(C(=O)C2CC2)CC1` [Example 57, (4-Cyclopropanecarbonyl-piperazin-1-yl)-[6-(4-hydroxy-phenyl)-1H-pyrazolo[3,4-b]pyridin-4-yl]-methanone], the inhibition at 1.14 µM turned out to be 28%.

As for `NC1CCCC(NC(=O)c2cc(-c3ccc(O)cc3)nc3[nH]ncc23)C1` (centres unmarked) [Example 33, 6-(4-Hydroxy-phenyl)-1H-pyrazolo[3,4-b]pyridine-4-carboxylic acid (3-amino-cyclohexyl)-amide], the inhibition at 1.14 µM stood at 87%.

Consider `CC1(C)CNCCN1C(=O)c1cc(-c2ccc(O)cc2)nc2[nH]ncc12` [Example 10, (2,2-Dimethyl-piperazin-1-yl)-[6-(4-hydroxy-phenyl)-1H-pyrazolo[3,4-b]pyridin-4-yl]-methanone], for which the inhibition at 1.14 µM worked out at 96%.

As to `O=C(NCC1CNC1)c1cc(-c2ccc(O)cc2)nc2[nH]ncc12` [Example 13, 6-(4-Hydroxy-phenyl)-1H-pyrazolo[3,4-b]pyridine-4-carboxylic acid (azetidin-3-ylmethyl)-amide], the inhibition at 1.14 µM is 39%.

As for `CC1(C)CC(NC(=O)c2cc(-c3ccc(O)cc3)nc3[nH]ncc23)CC(C)(C)N1` [Example 1, 6-(4-Hydroxy-phenyl)-1H-pyrazolo[3,4-b]pyridine-4-carboxylic acid (2,2,6,6-tetramethyl-piperidin-4-yl)-amide], the inhibition at 1.14 µM was determined as 18%.
